In patent US9682092B2, “Boron-containing small molecules as anti-inflammatory agents” (ANACOR PHARMACEUTICALS, INC., priority 2006, dated 2017):

Key:
PMA-induced ear swelling = assay: Topical, Phorbol Ester Mouse Ear Assay; assay type: in vivo, CD-1 (Crl.) derived male mice
Procedure: 5-(4-Cyanophenoxy)-1-hydroxy-2,1-dihydrobenzoxaborole and betamethasone were provided by Anacor Pharmaceuticals, Inc. Betamethasone is used to treat the itching, redness, dryness, crusting, scaling, inflammation, and discomfort of various skin conditions.
Test substances were each applied topically to the right ear of the test animal 30 minutes before and 15 minutes after Phorbol 12-Myristate 13-Acetate (PMA) was applied. The dosing volume was 20 μl/ear for solvent vehicle or 20 mg/ear for cream formulations.
Male CD-1 (Crl.) derived mice weighing 24±2 g were provided by BioLasco Taiwan (under Charles River Laboratories Technology Licensee). Space allocation for 10 animals was 29×18×13 cm. Mice were housed in APEC® cages. All animals were maintained in a controlled temperature (22° C.-23° C.) and humidity (70%-80%) environment with 12 hours light dark cycles for at least one week in MDS Pharma Services—Taiwan Laboratory prior to use. Free access to standard lab chow for mice (Lab Diet, Rodent Diet, PMI Nutrition International, USA) and tap water was granted. All aspects of this work including housing, experimentation and disposal of animals were performed in general accordance with the Guide for the Care and Use of Laboratory Animals (National Academy Press, Washington, D.C., 1996).
Groups of 5 CD-1 (Crl.) derived male mice weighing 24±2 g were used. PMA ([…] in 20 μl of Acetone) was applied topically to the anterior and posterior surfaces of the right ear to each animal. Vehicle (Ethanol:Acetone/1:1, 20 μL/ear or cream, 20 mg/ear) and test substances including 5-(4-cyanophenoxy)-1-hydroxy-2,1-dihydrobenzoxaborole and betamethasone were each applied 30 minutes before and 15 minutes after PMA application. […] Ear swelling was then measured by a Dyer model micrometer gauge at 6 hours after PMA application as an index of inflammation. Percent inhibition was calculated according to the formula: ([Ic−It]/Ic)×100%, where Ic and It refer to increase of ear thickness (mm) in control and treated mice, respectively. […]

Row | melting point [°C] | Structure (SMILES) | further results
1 |  | C[C@@H]1C[C@H]2[C@@H]3CCC4=CC(=O)C=C[C@]4(C)[C@@]3(F)[C@@H](O)C[C@]2(C)[C@@]1(O)C(=O)CO [dexamethasone, Dexamethasone, reference compound] | decrease in the ear swelling relative to the vehicle (Ethanol:Acetone/1:1)-treated group (PMA-induced ear swelling; 3 mg/ear topical, positive control, 6 hours after PMA): 72%
2 |  | N#Cc1ccc(Oc2ccc3c(c2)COB3O)cc1 [C17, 5-(4-Cyanophenoxy)-1,3-dihydro-1-hydroxy-2,1-benzoxaborole] | Percent inhibition of ear swelling induced by topical phorbol ester (PMA-induced ear swelling; 0.2 mg/ear×2 topical, 30 min before and 15 min after PMA, ear swelling measured 6 hours after PMA): 22%; inhibition of the PMA-induced ear swelling (in words) (PMA-induced ear swelling; 1 mg/ear×2, versus vehicle or cream placebo control): significant inhibition
3 | 119 to 130 | OB1OCc2ccc(Oc3ccc(Cl)cc3)cc21 [C20, 6-(4-Chlorophenoxy)-1,3-dihydro-1-hydroxy-2,1-benzoxaborole] | 
4 | 147 to 150 | N#Cc1cccc(COc2ccc3c(c2)COB3O)c1 [C96, 3-((1-hydroxy-1,3-dihydrobenzo[c][1,2]oxaborol-5-yloxy)methyl)benzonitrile] | 
5 | 135 to 141 | N#CCCSc1cn(-c2ccc3c(c2)B(O)OC3)c2ccccc12 [C67, 3-(1-(1-hydroxy-1,3-dihydrobenzo[c][1,2]oxaborol-6-yl)-1H-indol-3-ylthio)propanenitrile] | 
6 | 159 to 163 | OB1OCc2ccc(-n3cc(Sc4ccccc4)c4ccccc43)cc21 [C66, 6-(3-(phenylthio)-1H-indol-1-yl)benzo[c][1,2]oxaborol-1(3H)-ol] | 
